Results from US20240385087A1, “METHOD FOR STAINING MITOCHONDRIA” (TOCRIS COOKSON LIMITED, priority 2021, published 2024).
Entries after “also recorded” stand apart in the source; their conditions may differ.

Experiments:
Assay type in all cases: cell-based
[1] = test system: mitochondria in HeLa cells; test: Time-course live-cell confocal imaging of stained HeLa cells (photostability, localisation, phototoxicity); details: 50 nM for 60 mins; for (photo)-toxicity during prolonged imaging / localisation at mitochondria over time / photostability / signal over time: live imaging every 5 seconds for 240 frames
Experimental: Within this time frame, COMPOUND 1 intensity drops by ˜25% during the imaging period compared to the comparator which drops by 65%.
Data from two samples of COMPOUND 3,measured at different timepoints is overlaid in the graph (right).
(§1) Mitochondrial stains were diluted to working concentrations from 10 mM DMSO stock solutions into DMEM containing 10% FCS and 25 mM HEPES. Solutions were incubated with HeLa cells at 37° C. in a humidified 5% CO2 incubator for the indicated period of time prior to imaging, typically without a washout step (though a washout step can be performed). A Nikon A1R TiE confocal laser scanning microscope equipped with environmental chamber (37° C.) was used for live-cell imaging, employing 561 nm and 640 nm diode laser lines, a Nikon A1R Plan APO VC 60x Oil lens (NA 1.4), pinhole at 1AU. The images were acquired using NIS Elements software and processed using ImageJ.

[2] = test system: HeLa cells; test: Optimization of stain concentration for imaging HeLa cells; details: 50 nM, 60 mins, no washout, same laser power/settings
Experimental: HeLa cells were incubated with the comparator or COMPOUND 1 for 60 mins at indicated doses and imaged at the same laser power/settings. NOTE: no washout step to remove unbound comparator was performed (manufacturer recommends this) to enable direct comparison with COMPOUND 1. Some toxicity is observed with 100 nM of comparator.
as §1

[3] = test system: mitochondria in HeLa cells; test: Mitochondrial localisation and membrane-potential dependence in HeLa cells (oligomycin / CCCP treatment, confocal imaging)
Experimental: as §1

SMILES	(photo)-toxicity during prolonged imaging [1]	localisation at mitochondria over time [1]	photostability / signal over time [1]	drop of normalized intensity during the imaging period ([1]; live imaging every 5 seconds for 240 frames (20 minutes), 100% = maximum intensity peak) [%]	imaging result [2]	effect of de-polarizing the mitochondrial membrane with CCCP on stain ([3]; HeLa cells, 50 nM stain for 60 mins, then CCCP 10 μM up to 60 minutes)	effect of hyper-polarizing the mitochondrial membrane with oligomycin on stain ([3]; HeLa cells, 50 nM stain for 60 mins, then Oligomycin 5 μg/mL up to 60 minutes)	localisation of stain ([3]; mitochondrial stain, due to charge potential across the mitochondrial membrane)
c1ccc(-c2c3ccc(=[N+]4CCC4)cc-3oc3cc(N4CCC4)ccc23)cc1 [COMPOUND 4, 1-(6-(azetidin-1-yl)-9-phenyl-3H-xanthen-3-ylidene)azetidin-1-ium chloride]	no observable phototoxicity effects	remain faithfully localized to mitochondria over the entire imaging period	higher signal retention over time than COMPOUND 3	–	–	–	–	–
C[Si]1(C)C2=CC(=[N+]3CCC3)C=CC2=C(c2ccccc2)c2ccc(N3CCC3)cc21 [COMPOUND 1, 1-(7-(azetidin-1-yl)-5,5-dimethyl-10-phenyldibenzo[b,e]silin-3 (5H)-ylidene)azetidin-1-ium chloride]	no apparent toxicity	remains clearly localized at the mitochondria; also recorded: appears to mark the mitochondria more clearly than COMPOUND 2 over time	–	~25	excellent results	dispersion	accumulation	localizes specifically to the mitochondria
Cc1ccccc1-c1c2ccc(=[N+]3CCC3)cc-2oc2cc(N3CCC3)ccc12 [COMPOUND 3, 1-(6-(azetidin-1-yl)-9-(o-tolyl)-3H-xanthen-3-ylidene)azetidin-1-ium]	–	higher non-specific cytoplasmic background (and lower mitochondrial labelling)	retention of signal during the first 10 mins of imaging, but then the signal rapidly drops	–	–	–	–	–
